The subject of one series is PDAC. The following applies: cited from earlier work.
In series [1] the test system is human CFPAC-1 pancreatic tumor xenograft. Briefly: Human CFPAC-1 pancreatic tumor xenograft efficacy (FIG. 2). In kind it is in vivo, mice. The following applies: for efficacy as compared to vehicles: CFPAC-1 xenograft.
Series [2] relates to highly drug resistant tumor xenografts. Briefly: Highly drug resistant tumor xenografts in mice. The following applies: mouse, in vivo.
For another series, the system named is Panc02 cells. Briefly: Cell viability (MTT assay) in Panc02 cells. To be noted: Mus musculus, 96 hours of drug exposure. The format is cell-based, murine. As for the experimental part: The murine pancreatic cancer cell line Panc02, which is syngeneic to C57Bl/6 mice was a kind gift from Professor Michael A. Hollingsworth, UNMC, Omaha, Nebr. Panc02 cells were grown in 75 cm^2 cell culture flasks and maintained in DMEM medium supplemented with 10% fetal bovine serum (FBS), L-glutamine and penicillin (100 U/ml)/streptomycin (100 μg/ml) (both from Gibco Life Technologies, Carlsbad, Calif., USA). Cells were incubated at 37° C. in a humidified atmosphere containing 5% CO2.
To see cytotoxic effect of different drugs and nanoemulsion formulation, 5000 cells were seeded in each well of the 96-well plate for overnight at 37° C. in a humidified atmosphere containing 5% CO2. Various drugs (Paclitaxel, Abraxane, Gemcitabine and solution and nanoemulsion of DHA-SBT-1214) were diluted at concentrations ranging from 0 nM, 0.01 nM, 0.1 nM, 1 nM, 10 nM, 100 nM, 1000 nM to 10000 nM and Panc02 cells treated with these concentrations for 96 hours. After incubation, cells were treated with 3-(4,5-dimethylthiazol-2-yl)-2,5-diphenyltetrazolium bromide ([…]). MU crystals were dissolved with DMSO and plates were read at 570 nm absorbance using a BioTek Synergy HTX Multi-Mode Microplate Reader.
Cells were seeded at 0.5×10^6 cells/well in 6-well plates for overnight at 37 C in a humidified atmosphere containing 5% CO2. […] The percentage maximal response is shown as a function of anti-cancer agents when administered to Panc02 cells. The cell viability was measured by the MTT assay after 96 hours of incubation at 37° C. Data represent mean±standard deviation (n=3). Significant differences are indicated as follows: *p<0.05, and **p<0.01. The expression level of PD-L1 was determined using flow cytometry as follows. […] The cells were washed once with 3% BSA/PBS and analyzed by flow cytometer on a FACSCalibur flow cytometer and CellQuest™ Pro version 6.0 software (both from Becton-Dickinson and Co.). […]

Series [3] relates to human PANC-1 pancreatic tumor xenograft. Briefly: Human PANC-1 pancreatic tumor xenograft, schedule comparison (FIG. 3). In kind it is in vivo, RPCI SCID mice. The source says: In FIG. 3, this experiment compared a q7d×3 with a q3d×3 schedule for paclitaxel and DHA-SBT-1214 using a human PANC-1 pancreatic tumor xenograft in RPCI SCID mice. […] Paclitaxel was only weakly effective, showing tumor growth delays of 18 days with q7d×3 schedule and 13 days with q3d×3 schedule and no CRs.

Series [4] relates to patient-derived PPT2 prostate cancer stem cell xenograft. Briefly: Patient-derived prostate cancer stem cell (PPT2) xenograft model. The format is in vivo, mice. The following applies: patient-derived prostate CSC xenograft.
Series [5] has as its system PD-L1 surface expression in Panc02 cells. Briefly: PD-L1 surface protein expression by flow cytometry. The following applies: IC50 concentration, 48 hours. In kind it is cell-based, murine. As for the experimental part: Cells were seeded at 0.5×10^6 cells/well in 6-well plates for overnight at 37 C in a humidified atmosphere containing 5% CO2. […] The percentage maximal response is shown as a function of anti-cancer agents when administered to Panc02 cells. The cell viability was measured by the MTT assay after 96 hours of incubation at 37° C. Data represent mean±standard deviation (n=3). Significant differences are indicated as follows: *p<0.05, and **p<0.01. The expression level of PD-L1 was determined using flow cytometry as follows. Briefly, cells harvested from in vitro cultures were washed twice with 3% BSA/PBS and then incubated with rat anti-PD-L1 or isotype control antibodies ([…], BioXcell, West Lebanon, N.H., USA) for 30 minutes at 4 C, then washed three times and incubated with anti-rat AlexaFluor 488 conjugated Antibody. The cells were washed once with 3% BSA/PBS and analyzed by flow cytometer on a FACSCalibur flow cytometer and CellQuest™ Pro version 6.0 software (both from Becton-Dickinson and Co.).
Panc02 cells were treated with gemcitabine, Abraxane™, paclitaxel and DHA-SBT-1214 both in solution and nanoemulsion for 48 hours to determine whether they can induce PD-L1 protein expression. PD-L1 expression levels on tumor cells were determined by flow cytometry and is expressed as the A mean fluorescence intensity (ΔMFI; MFI using anti-PD-L1 subtracted from the isotype control). […] PD-L1 expression was analyzed using flow cytometry and is presented as ΔMFI (MFI using anti-PD-L1 subtracted from the isotype control). Data represent the mean±standard deviation of at least 3 independent experiments; *p<0.05, **p<0.01, ***p<0.001. As reported previously, PD-L1 level enhanced in pancreatic tumor tissues compared to in vitro growing cells as shown in FIG. 8.

A value given as a limit tells only on which side of the number the result lay.

Turning to `O=c1[nH]cc(F)c(=O)[nH]1` [5-FU, 5-flurouracil], the median overall survival with PDAC (randomized Phase III trial, gemcitabine versus 5-FU) is reported as 4.41 months.

For `CC/C=C\C/C=C\C/C=C\C/C=C\C/C=C\C/C=C/CCC(=O)O[C@@H](C(=O)O[C@H]1C[C@@]2(O)[C@@H](OC(=O)c3ccccc3)C3[C@](C)(C(=O)[C@H](OC(C)=O)C(=C1C)C2(C)C)[C@@H](O)C[C@H]1OC[C@@]31OC(C)=O)[C@@H](NC(=O)c1ccccc1)c1ccccc1` (stereo partly shown) [DHA-paclitaxel], the “efficacy as compared to vehicles” value in series [1] is recorded as “only minor tumor growth delay”. Besides, the efficacy entry in series [2] is listed as “do not show meaningful activity”.

For `CC(=O)O[C@@]12CO[C@@H]1C[C@H](O)[C@@]1(C)C(=O)[C@H](OC(=O)C3CC3)C3=C(C)[C@@H](OC(=O)[C@H](O)[C@H](C=C(C)C)NC(=O)OC(C)(C)C)C[C@@](O)([C@@H](OC(=O)c4ccccc4)[C@H]21)C3(C)C` [SBT-1214], the weight loss in series [1] (120 mg/kg total dose, until day 20) is given as under 4%.

On to `CC(=O)O[C@H]1C(=O)[C@@]2(C)[C@H]([C@H](OC(=O)c3ccccc3)[C@]3(O)C[C@H](OC(=O)[C@H](O)[C@@H](NC(=O)c4ccccc4)c4ccccc4)C(C)=C1C3(C)C)[C@]1(OC(C)=O)CO[C@@H]1C[C@@H]2O` [paclitaxel, reference compound], for which the IC50 in the series with Panc02 cells was 443 nM. Further, in series [1], the “efficacy as compared to vehicles” value was “only minor tumor growth delay”. The “complete responses (CRs)” value in series [3] (PANC-1 xenograft) is “no CRs”. The tumor growth delay in series [3] (q3d×3 schedule) amounted to 13 days; in series [3] (q7d×3 schedule) it was 18 days. Also, in series [4], the “efficacy (tumor growth, survival)” value is “completely ineffective”. Besides, the “PD-L1 surface expression (ΔMFI)” value in series [5] is on record as “upregulated”. Further, the efficacy entry in series [2] is given as “do not show meaningful activity”.

As to FOLFIRINOX, in the series on PDAC (Phase III clinical trial of FOLFIRINOX), the median survival is listed as 11.1 months.
